Measured values taken from article PMC10396955, “2-Oxabicyclo[2.1.1]hexanes as saturated bioisosteres of the ortho-substituted phenyl ring” (Nature Chemistry, 2023).
In brackets after ≈: the same amount, converted by molar mass. Where two headings read alike, the source gives them in different places.

Experiments:
physchem = assay type: physicochemical; conditions: for D (partition ratio), incubation 1 / D (partition ratio), incubation 2 / D (partition ratio), incubation 3: Table S2, n-octanol/PBS pH 7.4
Method: Determination of Distribution Coefficient (LogD, pH 7.4) […]
n-octanol – phosphate buffered saline (PBS), pH 7.4. Distribution coefficient (or LogD) is a […]
Phosphate buffered saline, tablet (Sigma-Aldrich, USA; Cat # P4417)
Acetic acid (Enamine, Ukraine.)
DMSO stock solutions of the test compounds 10mM
Gradient HPLC system (Shimadzu, Japan)
MTR22 Multi Mix Rotator (UNICO, USA)
Laboratory Centrifuge, Sigma 4-15C, Qiagen (SIGMA GmbH, Germany) […]
allowed to mix in a rotator for 1 h at 30 rpm. Phase separation was assured by centrifugation for […]
dilution. The samples (both phases) were analyzed using a HPLC system coupled with a tandem mass spectrometer. Mebendazole was used as a reference compound. […]
where: SO – peak area of the analyte in octanol phase
S P – peak area of the analyte in PBS buffer do – dilution coefficient for octanol phase dp – dilution coefficient for aqueous phase

Fusarium oxysporum = assay: Antifungal susceptibility testing (MIC, CLSI M38-A2 microdilution); assay type: cell-based
Method: (§1) page 252: Antifungal susceptibility testing (determination of MIC values) The antifungal susceptibility tests were performed according to the Clinical and Laboratory Standards Institute (CLSI) […]-A2 protocol for mycelial fungi (1). Stock solutions were prepared by dissolving an appropriate amount of testing compounds in DMSO. Solutions of test compounds were added to the wells of a 96-well polystyrene microtiter plate (Colstar, USA) in the concentration range from 0.5 to 0.001 mg/mL. Mycelium growth was monitored photometrically at 490 nm by measuring the optical density of each well. Measurements were carried out two times: immediately after adding all components (RPMI 1640 broth, conidial suspension, test compound solutions) and after incubation plate at 26 °C for 48 h (2). MICs were the lowest testing compound concentrations that produced partial growth inhibition (50% of optical density relative to the control without testing compounds). The tests were performed in triplicate Results : Table S6. The MIC values of Fluxapyroxad , Boscalid , and their saturated analogues against Fusarium oxysporum , and Fusarium verticillioides Antifungal compaunds MIC, mg/mL Fusarium oxysporum Fusarium verticillioides Fluxapyroxad -* 0.250 Analogue (±)- 28 0.125 0.125 […] of 0.063 mg/mL. […]

Fusarium verticillioides = assay: as above; assay type: cell-based; conditions: Fusarium verticillioides; for MIC: read-out: MIC
Method: as §1

[1] = Kinetic solubility in phosphate-buffered saline, pH 7.4; assay type: physicochemical; conditions: 25 °C, pH 7.4, aqueous buffer, kinetic from dmso stock
Method: Analysis of Aqueous Solubility […]
compound (Ondansetron) were assessed for kinetic solubility in phosphate-buffered saline, pH […]
Phosphate buffered saline, pH 7.4 (Sigma-Aldrich, USA; Cat #P3813) […]
MultiScreen HTS 96 Well Filter Plates (Millipore, Ireland; Cat # MSGVS2210) […]
Matrix Multichannel Electronic Pipette 2-125 µL, 5-250 µL, 15-1250 µL (Thermo Scientific, […]
Vacuum pump (Millipore, USA; Model # XX5500000)
The measurements were performed using SpectraMax Plus reader in UV-Vis mode. Acquisition and analysis of the data were performed using SoftMax Pro v.5.4 (Molecular Devices) and Excel […]
Kinetic solubility assay was performed according to the Enamine’s aqueous solubility SOP.
Briefly, using a 20 mM stock solution of the compound in 100% DMSO dilutions were prepared to a theoretical concentration of 400 μM in duplicates in phosphate-buffered saline pH 7.4 […]
for two hours and then filtered through HTS filter plates using a vacuum manifold. The filtrates of test compounds were diluted 2-fold with acetonitrile with 2% DMSO before measuring.
In parallel, compound dilutions in acetonitrile/PBS (1:1) were prepared to theoretical […]
DMSO to generate calibration curves. Ondansetron was used as reference compound to control proper assay performance. 200 μl of each sample was transferred to 96-well plate and measured in 200-550 nm range with 5 nm step.
The concentrations of compounds in PBS filtrate are calculated using a dedicated Microsoft Excel calculation script. Proper absorbance wavelengths for calculations are selected for each compound manually based on absorbance maximums (absolute absorbance unit values for the minimum and maximum concentration points within 0 – 3 OD range). Each of the final datasets is additionally visually evaluated by the operator and goodness of fit (R2) is calculated for each calibration curve. The effective range of this assay is approximately 2-400 μM and the […]

human liver microsomes = assay: Metabolic stability in human liver microsomes; assay type: in vitro ADME; conditions: human, microsomes
Method: (§2) The data acquisition and system control was performed using Analyst 1.6.3 software from AB Sciex. Methods Microsomal incubations were carried out in 96-well plates in 5 aliquots of 30 μL each (one for each time point). […] In the control reactions the NADPH-cofactor system was substituted with phosphate buffer. […] Each reaction was performed in duplicates. Five time points over 40 minutes were analyzed. The reactions were stopped by adding 4 volumes of methanol containing internal standard to incubation aliquots, followed by protein sedimentation by centrifuging at 5500 rpm for 4 minutes. […]. Supernatants were analyzed using the HPLC system coupled with tandem mass spectrometer. […] In some cases, the last time point is excluded from the calculations to ensure acceptable logarithmic linearity of decay.

[2] = Metabolic stability in human liver microsomes; assay type: in vitro ADME; conditions: both sexes, human; for remaining at 40 min, 2 µM / remaining at 25 min, 2 µM / microsomal CLint at 2 µM / half-life at 2 µM: microsomes; for remaining at 40 min, 2 µM / remaining at 25 min, 2 µM: Mean of 2; for microsomal CLint at 2 µM: pH 7.4, Clint; for half-life at 2 µM: pH 7.4, t1/2; for k el at 2 µM: pH 7.4
Method: as §2

[3] = pH 7.4, LogD, pH 7.4, incubation 1
[4] = pH 7.4, LogD, pH 7.4, incubation 2
[5] = pH 7.4, LogD, pH 7.4, incubation 3
[6] = PBS solubility, pH 7.4, Incubation 1
[7] = PBS solubility, pH 7.4, Incubation 2
[8] = pH 7.4, % Remaining without cofactor

SMILES | D (partition ratio), incubation 1 (physchem) | D (partition ratio), incubation 2 (physchem) | D (partition ratio), incubation 3 (physchem) | logD at 1 h (physchem; pH 7.4, LogD, pH 7.4 (mean)) | logD at 1 h (physchem; [3]) | logD at 1 h (physchem; [4]) | logD at 1 h (physchem; [5]) | logD at 1 h (physchem; pH 7.4, logD (7.4)) | solubility at 2 h [1, 6] [µM] | solubility at 2 h [1, 7] [µM] | solubility at 2 h ([1]; Solubility) [µM] | CIint, intrinsic clearance (human liver microsomes) [µL/min/mg] | remaining at 40 min, 2 µM [2, 8] [%] | remaining at 25 min, 2 µM ([2]; pH 7.4, % Remaining) [%] | remaining at 40 min, 2 µM ([2]; pH 7.4, % Remaining) [%] | microsomal CLint at 2 µM [2] [µL/min/mg] | half-life at 2 µM [2] [h] | k el at 2 µM [2] [s⁻¹] | further results
O=C(Nc1ccccc1-c1ccc(Cl)cc1)c1cccnc1Cl [Boscalid, reference compound] | 3.62E+03 | 2.86E+03 | 4.07E+03 | 3.55 | 3.56 | 3.46 | 3.61 | 3.6 | 9 (≈ 3.09 µg/mL) | 13 (≈ 4.46 µg/mL) | 11 (≈ 3.78 µg/mL) | 26 | 59 | 75 | 66 | 26 | 1.06 | 0.000183 | MIC (Fusarium oxysporum; Fig. 4e): 250 µg/mL (≈ 728 µM); MIC (Fusarium oxysporum; Table S6, lowest concentration giving 50% of optical density relative to control, 26 °C, 48 h): 250 µg/mL (≈ 728 µM); inhibition at 63 µg/mL (Fusarium verticillioides; at a concentration of 0.063 mg/mL, MIC not reached, read-out: Maximal inhibition of growth): 39.2 ± 2.7%
Cn1cc(C(=O)Nc2ccccc2-c2cc(F)c(F)c(F)c2)c(C(F)F)n1 [Fluxapyroxad, reference compound] | 3.37E+03 | 2.99E+03 | 3.24E+03 | 3.51 | 3.53 | 3.48 | 3.51 | 3.5 | 24 (≈ 9.15 µg/mL) | 27 (≈ 10.3 µg/mL) | 25 (≈ 9.53 µg/mL) | 28 | 79 | 73 | 63 | 28 | 0.983 | 0.0002 | inhibition at 31 µg/mL (Fusarium oxysporum; at a concentration of 0.031 mg/mL, MIC not reached, read-out: Maximal inhibition of growth): 38 ± 1.9%; MIC (Fusarium verticillioides; 48 h, Table S6, lowest concentration giving 50% of optical density relative to control, 26 °C, 48 h): 250 µg/mL (≈ 656 µM); MIC (Fusarium verticillioides; Fig. 4e): 250 µg/mL (≈ 656 µM)
